Laboratory results taken from US20220354815A1, “OKN-007 AS A THERAPEUTIC AGENT” (Oklahoma Medical Research Foundation, priority 2019, published 2022).

What was measured:
[1] = system: Sodl G93A mutant mice; test: ALS disease progression score in Sod1 G93A mutant mice; type: in vivo, mouse
Experimental: (§1) ALS is a debilitating disease that according to the ALS Association affects two per 100,000 people in the USA. There is no cure and the average survival time after diagnosis is three years. In this study, the inventors investigated the impact of treatment with […], an antioxidant, on ALS progression. Female Sodl G93A mutant mice, an established mouse model of ALS, and wildtype (wt) mice were treated with OKN-077 for three months starting at the age of 60 days, before the mice became symptomatic, and compared to age matched untreated controls (both transgenic and wt). Disease progression measured by monitoring disease score on a scale of 1-5 (based on hind limb paralysis and dysfunction) was delayed in the treated mice. All treated mice were at stage 2 at the time of sacrifice at 145 days (end stage disease is ˜160 days), while untreated transgenic controls had progressed to stage ≥2. […] The untreated transgenic control mice had on average 10.7 ±2.1 alpha motor neurons per ventral horn, while the treated transgenic mice had 17.5 ±4.5 alpha motor neurons (a 64% increase). […] These findings indicate that OKN-077 may potentially be considered as a possible therapeutic agent for ALS, and certainly warrants further investigation.

[2] = system: Sodl G93A mutant mice; test: Spinal cord histology (NeuN motor neuron counts, microglia, astrocytes) in G93A mice; type: in vivo, mouse
Experimental: as §1

[3] = system: Sodl G93A mutant mice; test: MRI (diffusion, perfusion) and MR spectroscopy of spinal cord in G93A mice; type: in vivo, mouse
Experimental: as §1

[4] = system: CS99 cells; test: Endometrial cancer in vivo, CS99 cells i.p. in athymic nude mice (survival, MRI tumor volume); set-up: species or system mouse
Experimental: CS99 cells were obtained from K. Moxley (OUHSC). 10^6 cells were injected i.p. into Athymic Nude Foxnlnu mice (Envigo) mice. Gd-DTPA (MRI contrast agent; administered i.v. via a tail-vein-catheter) was used to detect tumors. OKN-077 was administered 150 mg/kg daily in drinking water.

[5] = system: CD44v6; test: CD44v6 biomarker regulation; settings: biomarker directly associated with metastasis; stated without data
[6] = system: TGF-β1; test: TGF-β1 pathway expression; settings: gene not directly down-regulated; stated without data
[7] = system: orthotopic GBM xenografts; settings: cited from earlier work
[8] = system: normal cells; test: Effects on normal cells; settings: stated without data
[9] = Towner et al., Translational Oncology 2019
[10] = previous assessment by the inventors

SMILES: CC(C)(C)/[N+]([O-])=C/c1ccc(S(=O)(=O)[O-])cc1S(=O)(=O)[O-].[Na+].[Na+] [OKN-077, 2,4-Disulfonyl-N-Tert-Butylnitrone, 2,4-disulfonyl α-phenyl tertiary butyl nitrone]
- Delay in reaching the score of 2 versus untreated G93A mice ([1]; FIG. 2C): around 14 days
- Highest disease score reached ([1]; FIG. 2D, untreated G93A mice reached score 3 around 136 days of age): ≤ 2
- Disease progression (disease score based on hind limb paralysis and dysfunction) ([1]; female G93A mice treated three months from age 60 days, vs untreated transgenic controls): delayed
- Disease stage at the time of sacrifice ([1]; sacrifice at 145 days, scale of 1-5, all treated mice): 2
- Disease onset ([1]; treated vs untreated G93A mice (FIG. 2B)): doesn't delay
- Motor neuron loss ([2]; NeuN stained ventral horn, treated vs untreated G93A p=0.0197): prevents
- Astrocyte activation ([2]; mouse, in vivo): didn't affect
- Alpha motor neurons per ventral horn ([2]; treated transgenic mice, untreated transgenic 10.7 ±2.1): 17.5 ±4.5
- Microglia activation ([2]; treated vs untreated G93A mice): decreases
- Ramified, non-activated microglia ([2]; treated vs untreated G93A mice, p=0.0026): significantly more
- Increase in alpha motor neurons versus untreated transgenic mice ([2]; treated vs untreated transgenic mice): 64%
- Astrocyte proliferation ([2]; treatment p=0.23, FIGS. 5B and 5C): doesn't affect
- Microglia proliferation (number of Ibal+ cells) ([2]; two-way ANOVA, treatment p=0.0244, FIG. 5A): treatment effect
- Myo-inositol (Myo-Ins)/creatine ratio by MRS ([3]; stated for ALS c (non-treated) vs ALS t (treated) mice, FIG. 6C): significant decrease
- Spinal cord metabolite myo-inositol ([3]; treated vs untreated): significantly elevated
- Apparent diffusion coefficient (ADC) in the lumbar region of the spinal cord ([3]; treated vs untreated, p<0.001): decreased
- Relative tissue blood flow in the spinal cord ([3]; treated vs untreated, p<0.01): significantly increase
- ADC in the surrounding muscle tissue ([3]; treated vs untreated, p<0.05): increased
- Survival of tumor-bearing mice compared to untreated (UT) ([4]; 150 mg/kg daily in drinking water, FIG. 7): significant increase
- Tumor size on MR images at 21 days after CS99 cell implantations ([4]; compared to untreated tumors, FIG. 8): consistently small tumors
- Tumor volumes compared to UT mice ([4]; ~21 days after cell implantation, p<0.0001, FIG. 9): significantly decrease
- CD44v6 regulation [5]: downregulates
- TGF-β1 protein expression [6]: decreased
- TMZ-Resistant Glioblastoma (GBM) tumor growth [7, 9]: suppresses
- Temozolomide (TMZ) sensitivity [7, 9]: increases
- Survival in orthotopic GBM xenografts [7, 10]: increasing
- Tumor volumes in orthotopic GBM xenografts [7, 10]: decreasing
- Adverse effects on normal cells [8]: no adverse effects
